Assay [1] deals with T1, PI3K-α (PIK3CA) wild-type (WT), p110α/p85α complex (Homo sapiens, UniProt P42336).
T1 construct: Recombinant, catalytically active human full length PIK3KA Wild-type and H1047R mutant; 6×His (N); purchased EMD Millipore Sigma 14-602M
The experiment in a line: PI3K-alpha kinase (PIK3CA) biochemical activity, ADP-Glo, wild-type. The source says:
(§1) PI3K-Alpha Kinase (PIK3CA) Activity, Wild-Type and H1047R Mutant and Determining IC50 Values for Inhibitors
(§2) Recombinant, catalytically active human full length PIK3KA Wild-type and H1047R mutant were purchased as 1:1 complex of N-terminal 6×his tagged p110α (catalytic) and untagged p85α (regulatory subunit) from EMD Millipore Sigma (cat. no. 14-602M and 14-792M, respectively). PIP2diC8 (Avanti Polar Lipids Inc., cat. no. 850185) or Soy PI (Avanti Polar Lipids Inc., cat. No. 840044P) was used as lipid substrate. PIP2diC8 or PI lyophilized powder was dissolved in milliQ water to a concentration of 1 mM just before use. 10 mM stock compounds in DMSO were serially diluted 1:3 to generate a 10-point curve and plated using an acoustic liquid handler system (Echo 550 series instrument, Labcyte). A 10× intermediate compound plate (200 uM starting compound concentration and 10% DMSO) was prepared before starting the reaction. A typical reaction mixture (50 uL) comprised 40 mM HEPES buffer, pH 7.4, 25 mM MgCl2, 0.01% v/v triton-X-100, 1% v/v DMSO, 20 mM NaCl, 1-5 nM WT or H1047R PI3K protein, 20 uM ATP, and 50 uM PIP2diC8 or Soy PI. 1% DMSO buffer alone without test compound was employed as MAX control (full activity in the absence of any inhibitor), and no enzyme control was used to determine the level of background Adenosine 5′-diphosphate (ADP) (MIN control). First, Wild-type (WT) and H1047R mutant protein in kinase buffer with all components except ATP were incubated with or without compound at 27° C. for 1 h. After the pre-incubation, the reaction was initiated by the addition of 20 uL of 50 uM ATP (20 uM final concentration). The reaction was allowed to proceed until about 10% conversion of ATP (2 uM ADP) at 27° C. After that time, 5 uL of reaction was mixed with 5 uL of ADP-Kinase Glo Reagent (ADP-Glo Kinase assay kit, Promega cat. no. V9102) supplemented with MgCl2 10 mM to stop the reaction and deplete the remaining ATP for 40 min at room temperature. Then, 10 uL of Kinase Detection Reagent (ADP-Glo Kinase assay kit, Promega cat. no. V9102) was added to simultaneously convert ADP to ATP and allow the newly synthesized ATP to be measured using a luciferase/luciferin reaction. After 30 min at room temperature the light generated was measured using a luminometer (EnVision plate reader, Perkin Elmer). Process data through Genedata-Screener tool. Relative IC50 values are determined using luminescence units by calculating percent inhibition with respect to on-plate “MIN” and “MAX” controls. Data was analyzed using a 4-parameter nonlinear logistic equation (four-parameter logistic concentration-response curve): Y=bot+[(top−bot)/1+(x/IC50)slope] where Y=% inhibition, X=concentration yielding y % inhibition, Bottom=minimum value of y attained by curve, Top=maximum value of y attained by curve and Slope=steepness of curve at IC50. % Inh=[(median Max−x/median Max−median Min)]·100 IC50: concentration of compound that reduces a given response (ligand binding, enzyme response) by 50%. IC50 relative: concentration giving half the compound's maximum response.
For orientation: In ADP-Glo the light output rises with the ADP produced.

For assay [2], the target named is T2, PI3K-α (PIK3CA) H1047R mutant, p110α/p85α complex (Homo sapiens, UniProt P42336, H1047R).
T2 construct: Recombinant, catalytically active human full length PIK3KA Wild-type and H1047R mutant; 6×His (N); purchased EMD Millipore Sigma 14-792M
The experiment in a line: PI3K-alpha kinase (PIK3CA) biochemical activity, ADP-Glo, H1047R mutant.
Source text: as §1, §2

Setting [3] is: PIP2diC8 lipid substrate (footnote 1).

Structures are written as SMILES.

IC50 data for 20 compounds are collected here from patent publication US11878970B2, “Allosteric chromenone inhibitors of phosphoinositide 3-kinase (PI3K) for the treatment of disease” (Petra Pharma Corporation, priority 2021, dated 2024).

T2 sequence (P42336 whole entry H1047R): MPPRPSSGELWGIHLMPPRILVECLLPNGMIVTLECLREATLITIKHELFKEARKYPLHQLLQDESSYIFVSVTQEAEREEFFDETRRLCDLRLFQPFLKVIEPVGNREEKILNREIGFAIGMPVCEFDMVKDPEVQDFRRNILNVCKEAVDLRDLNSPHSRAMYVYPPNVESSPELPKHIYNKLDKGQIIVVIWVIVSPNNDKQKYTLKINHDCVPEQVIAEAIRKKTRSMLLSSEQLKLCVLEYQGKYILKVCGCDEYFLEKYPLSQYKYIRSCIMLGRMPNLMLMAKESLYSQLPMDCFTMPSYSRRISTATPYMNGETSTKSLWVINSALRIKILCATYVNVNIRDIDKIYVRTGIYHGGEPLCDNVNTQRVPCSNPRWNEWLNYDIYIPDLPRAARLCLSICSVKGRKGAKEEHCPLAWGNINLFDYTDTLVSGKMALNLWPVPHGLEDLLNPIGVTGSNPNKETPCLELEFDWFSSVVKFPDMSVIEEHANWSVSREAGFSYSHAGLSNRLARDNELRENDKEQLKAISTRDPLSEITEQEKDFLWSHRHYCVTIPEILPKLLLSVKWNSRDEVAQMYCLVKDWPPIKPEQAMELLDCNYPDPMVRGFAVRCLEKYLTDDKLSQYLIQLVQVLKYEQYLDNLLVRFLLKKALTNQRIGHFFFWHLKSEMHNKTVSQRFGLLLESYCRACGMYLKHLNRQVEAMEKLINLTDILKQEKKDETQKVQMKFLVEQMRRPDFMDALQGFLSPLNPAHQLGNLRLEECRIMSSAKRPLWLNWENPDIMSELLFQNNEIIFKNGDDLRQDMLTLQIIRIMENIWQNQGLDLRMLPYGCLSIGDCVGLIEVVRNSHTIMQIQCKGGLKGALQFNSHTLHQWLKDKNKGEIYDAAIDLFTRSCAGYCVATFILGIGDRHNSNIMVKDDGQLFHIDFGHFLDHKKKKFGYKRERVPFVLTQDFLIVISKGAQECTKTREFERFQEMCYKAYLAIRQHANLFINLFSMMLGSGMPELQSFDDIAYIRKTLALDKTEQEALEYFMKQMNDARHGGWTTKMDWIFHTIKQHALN
T2 sequence (P27986 whole entry partner): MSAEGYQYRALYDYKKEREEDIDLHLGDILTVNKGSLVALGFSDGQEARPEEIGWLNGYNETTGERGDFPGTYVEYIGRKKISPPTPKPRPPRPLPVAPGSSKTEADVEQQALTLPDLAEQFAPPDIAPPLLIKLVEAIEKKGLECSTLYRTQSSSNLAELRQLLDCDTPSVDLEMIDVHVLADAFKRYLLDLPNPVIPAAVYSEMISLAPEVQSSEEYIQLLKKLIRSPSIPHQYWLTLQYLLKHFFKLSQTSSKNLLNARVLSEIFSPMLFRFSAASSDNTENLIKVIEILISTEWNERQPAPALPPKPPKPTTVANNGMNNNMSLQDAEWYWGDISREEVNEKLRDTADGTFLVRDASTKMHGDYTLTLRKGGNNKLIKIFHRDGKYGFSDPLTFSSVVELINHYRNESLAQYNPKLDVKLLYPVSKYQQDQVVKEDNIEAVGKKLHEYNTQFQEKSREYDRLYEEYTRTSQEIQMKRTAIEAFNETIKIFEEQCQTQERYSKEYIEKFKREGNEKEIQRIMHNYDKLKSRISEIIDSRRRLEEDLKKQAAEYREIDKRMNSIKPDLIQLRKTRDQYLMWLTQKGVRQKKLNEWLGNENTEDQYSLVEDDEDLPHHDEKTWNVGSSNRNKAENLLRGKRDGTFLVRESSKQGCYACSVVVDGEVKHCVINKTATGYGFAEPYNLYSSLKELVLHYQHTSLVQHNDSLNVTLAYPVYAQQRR

As a reminder, the IC50 is the point on the concentration scale where inhibition reaches its midpoint. A lower IC50 goes with greater potency in that assay. For the compound `Cc1cc(C(C)Nc2ccc(Cl)nc2C(=O)O)c2oc(-c3ccc4nc(C)cn4c3)cc(=O)c2c1` (single isomer, unassigned) [Example 179, 6-Chloro-3-[1-[6-methyl-2-(2-methylimidazo[1,2-a]pyridin-6-yl)-4-oxo-chromen-8-yl]ethylamino]pyridine-2-carboxylic acid], the IC50 in assay [1] (Soy PI lipid substrate) lay within 5000 to 10000 nM; in assay [2] (Soy PI lipid substrate) it was 500 to 1000 nM.

Regarding `Cc1cc(C(C)Nc2ccccc2C(=O)O)c2oc(-c3ccn4cnnc4c3)cc(=O)c2c1` (single isomer, unassigned) [Example 161, 2-[1-[6-Methyl-4-oxo-2-([1,2,4]triazolo[4,3-a]pyridin-7-yl)chromen-8-yl]ethylamino]benzoic acid], the IC50 in assay [1] (Soy PI lipid substrate) was over 10000 nM; in assay [2] (Soy PI lipid substrate) it was 500 to 1000 nM.

On to `Cc1cc(C(C)Nc2ccccc2C(=O)O)c2oc(-c3ccc4c(cnn4C)n3)cc(=O)c2c1` (single isomer, unassigned) [Example 164, 2-[1-[6-Methyl-2-(1-methylpyrazolo[4,3-b]pyridin-5-yl)-4-oxo-chromen-8-yl]ethylamino]benzoic acid], for which the IC50 in assay [1] (Soy PI lipid substrate) is 1000 to 5000 nM; in assay [2] (Soy PI lipid substrate), under 500 nM.

In the case of `Cc1cc(C(C)Nc2ccccc2C(=O)O)c2oc(-c3ccc4nn(C)cc4c3)cc(=O)c2c1` (stereo not shown) [Example 13, 2-[1-[6-Methyl-2-(2-methylindazol-5-yl)-4-oxo-chromen-8-yl]ethylamino]benzoic acid], the IC50 in assay [1] (Soy PI lipid substrate) and in assay [2] (Soy PI lipid substrate) was under 500 nM throughout.

For `Cc1cc(C(C)Nc2ccccc2C(=O)O)c2oc(-c3ccc4cn[nH]c4n3)cc(=O)c2c1` (single isomer, unassigned) [Example 121, 2-[1-[6-Methyl-4-oxo-2-(1H-pyrazolo[3,4-b]pyridin-6-yl)chromen-8-yl]ethylamino]benzoic acid], the values for the IC50 in assay [1] (Soy PI lipid substrate) and in assay [2] (Soy PI lipid substrate) were 1000 to 5000 nM and under 500 nM, respectively.

Take `Cc1cn2cc(-c3oc4c(C(C)Nc5ccccc5C(=O)O)cc(F)cc4c(=O)c3C)ccc2n1` (single isomer, unassigned) [Example 124, 2-[1-[6-Fluoro-3-methyl-2-(2-methylimidazo[1,2-a]pyridin-6-yl)-4-oxo-chromen-8-yl]ethylamino]benzoic acid]: the IC50 in assay [1] (Soy PI lipid substrate) was 500 to 1000 nM; in assay [2] (Soy PI lipid substrate), under 500 nM.

Consider `Cc1cc(C(C)Nc2cccc(F)c2C(=O)O)c2oc(-c3ccc4nn(C)cc4c3)cc(=O)c2c1` (single isomer, unassigned) [Example 172, 2-Fluoro-6-[1-[6-methyl-2-(2-methylindazol-5-yl)-4-oxo-chromen-8-yl]ethylamino]benzoic acid], for which the IC50 in assay [1] (Soy PI lipid substrate) and in assay [2] (Soy PI lipid substrate) was under 500 nM each time.

For the compound `Cc1cc(C(C)Nc2ccccc2C(=O)O)c2oc(-c3ccc4c(cnn4CC(C)(C)O)c3)cc(=O)c2c1` (single isomer, unassigned) [Example 123, 2-[1-[2-[1-(2-Hydroxy-2-methyl-propyl)indazol-5-yl]-6-methyl-4-oxo-chromen-8-yl]ethylamino]benzoic acid], the IC50 was 1000 to 5000 nM in assay [1] (Soy PI lipid substrate) and under 500 nM in assay [2] (Soy PI lipid substrate).

For the compound `Cc1cc(C(C)Nc2ccccc2C(=O)O)c2oc(-c3ccc4nnc(C(C)C)n4c3)cc(=O)c2c1` (single isomer, unassigned) [Example 78, 2-[1-[2-(3-Isopropyl-[1,2,4]triazolo[4,3-a]pyridin-6-yl)-6-methyl-4-oxo-chromen-8-yl]ethylamino]benzoic acid], the IC50 in assay [1] (Soy PI lipid substrate) is over 10000 nM; in assay [2] (Soy PI lipid substrate) it was 1000 to 5000 nM.

With `Cc1cc(C(C)Nc2ccccc2C(=O)O)c2oc(-c3ccc4[nH]c(C(F)(F)F)cc4c3)cc(=O)c2c1` (stereo not shown) [Example 11, 2-[1-[6-Methyl-4-oxo-2-[2-(trifluoromethyl)-1H-indol-5-yl]chromen-8-yl]ethylamino]benzoic acid], the IC50 in assay [1] (setting [3]) and in assay [2] (setting [3]) was 500 to 1000 nM each time.

With `Cc1cc(C(C)Nc2ccccc2C(=O)O)c2oc(-c3ccc4cc(C)nn4c3)cc(=O)c2c1` (single isomer, unassigned) [Example 134, 2-[1-[6-Methyl-2-(2-methylpyrazolo[1,5-a]pyridin-6-yl)-4-oxo-chromen-8-yl]ethylamino]benzoic acid], the IC50 is 1000 to 5000 nM in assay [1] (Soy PI lipid substrate) and under 500 nM in assay [2] (Soy PI lipid substrate).

As for `Cc1c(-c2ccc3nn(C)cc3c2)oc2c(C(C)Nc3ccccc3C(=O)O)cc(F)cc2c1=O` (single isomer, unassigned) [Example 57, 2-[1-[6-Fluoro-3-methyl-2-(2-methylindazol-5-yl)-4-oxo-chromen-8-yl]ethylamino]benzoic acid], the IC50 in assay [1] (Soy PI lipid substrate) and in assay [2] (Soy PI lipid substrate) was 1000 to 5000 nM in each case.

Turning to `Cc1cc(C(C)Nc2ccccc2C(=O)O)c2oc(-c3cc4ccncc4o3)cc(=O)c2c1` (single isomer, unassigned) [Example 39, 2-[1-(2-Furo[2,3-c]pyridin-2-yl-6-methyl-4-oxo-chromen-8-yl)ethylamino]benzoic acid], the IC50 was 1000 to 5000 nM in assay [1] (Soy PI lipid substrate) and under 500 nM in assay [2] (Soy PI lipid substrate).

Regarding `Cc1cc(C(C)Nc2ccccc2C(=O)O)c2oc(-c3ccc4c(c3)CN(C)C4=O)c(C)c(=O)c2c1` (single isomer, unassigned) [Example 137, 2-[1-[3,6-Dimethyl-2-(2-methyl-1-oxo-isoindolin-5-yl)-4-oxo-chromen-8-yl]ethylamino]benzoic acid], the IC50 in assay [1] (Soy PI lipid substrate) was 1000 to 5000 nM; in assay [2] (Soy PI lipid substrate) it was under 500 nM.

In the case of `Cc1cc(C(C)Nc2ccc(Cl)c(F)c2C(=O)O)c2oc(-c3c(C)nc4ccccn34)cc(=O)c2c1` (single isomer, unassigned) [Example 182, 3-Chloro-2-fluoro-6-[1-[6-methyl-2-(2-methylimidazo[1,2-a]pyridin-3-yl)-4-oxo-chromen-8-yl]ethylamino]benzoic acid], the results for the IC50 in assay [1] (Soy PI lipid substrate) and in assay [2] (Soy PI lipid substrate) were 1000 to 5000 nM and under 500 nM, respectively.

Take `Cc1cc(C(C)Nc2ccccc2C(=O)O)c2oc(-c3ccc4cncn4c3)cc(=O)c2c1` (single isomer, unassigned) [Example 79, 2-[1-(2-Imidazo[1,5-a]pyridin-6-yl-6-methyl-4-oxo-chromen-8-yl)ethylamino]benzoic acid]: the IC50 is 1000 to 5000 nM in assay [1] (Soy PI lipid substrate) and under 500 nM in assay [2] (Soy PI lipid substrate).

With `Cc1cc(C(C)Nc2ccccc2C(=O)O)c2oc(-c3ccc4nncn4c3)cc(=O)c2c1` (single isomer, unassigned) [Example 76, 2-[1-[6-Methyl-4-oxo-2-([1,2,4]triazolo[4,3-a]pyridin-6-yl)chromen-8-yl]ethylamino]benzoic acid], the figures for the IC50 in assay [1] (Soy PI lipid substrate) and in assay [2] (Soy PI lipid substrate) were over 10000 nM and under 500 nM, respectively.

For the compound `Cc1cc(C(C)Nc2ccccc2C(=O)O)c2oc(-c3c4ccccc4nn3C)cc(=O)c2c1` (single isomer, unassigned) [Example 119, 2-[1-[6-Methyl-2-(2-methylindazol-3-yl)-4-oxo-chromen-8-yl]ethylamino]benzoic acid], the IC50 in assay [1] (Soy PI lipid substrate) and in assay [2] (Soy PI lipid substrate) was 1000 to 5000 nM in each case.

For the compound `Cc1cc(C(C)Nc2ccccc2C(=O)O)c2oc(-n3cc4ccccc4n3)cc(=O)c2c1` (single isomer, unassigned) [Example 50, 2-[1-(2-Indazol-2-yl-6-methyl-4-oxo-chromen-8-yl)ethylamino]benzoic acid], the IC50 in assay [1] (Soy PI lipid substrate) was 1000 to 5000 nM; in assay [2] (Soy PI lipid substrate), under 500 nM.

Take `Cc1cc(C(C)Nc2ccc(Cl)c(F)c2C(=O)O)c2oc(-c3ccc4nc(C)cn4c3)cc(=O)c2c1` (single isomer, unassigned) [Example 183, 3-chloro-2-fluoro-6-[1-[6-methyl-2-(2-methylimidazo[1,2-a]pyridin-6-yl)-4-oxo-chromen-8-yl]ethylamino]benzoic acid]: the half-maximal inhibitory concentration (IC50) in assay [1] (Soy PI lipid substrate) is 500 to 1000 nM; in assay [2] (Soy PI lipid substrate), under 500 nM.
